In patent US20240216369A1, “THE USE OF A SPLICING MODULATOR FOR A TREATMENT SLOWING PROGRESSION OF HUNTINGTON'S DISEASE” (Novartis AG, priority 2019, published 2024):
pEC50: −log10 of the molar value. Entries after “also recorded” stand apart in the source; their conditions may differ.

What was measured:
[1] = tested on: HTT transcript; test: In vitro evaluation in SH-SY5Y cells: HTT transcript by quantitative PCR; format: cell-based, human; conditions: 24 hours
Experimental: Cultured human neuroblastoma (SH-SY5Y cell line) cells were treated at doses ranging from 5 nM-125 nM for 24 hours (for transcript evaluation) or 48 hours (for protein evaluation). RNA was quantified by Nanodrop 2000 (Thermo Scientific). cDNAs were synthesized from 140-400 ng RNA using Maxima First strand cDNA synthesis kit using a mix of oligo dT and random hexamers (Thermo Scientific) in 20 uL reaction at 25° C. for 10 min, 50° C. for 15 min then 85° C. for 5 min. Quantitative PCR was performed using Taqman Fast Advanced master mix (Thermo Scientific) in 20 uL with 4 uL of cDNA reaction and primers specific for each genes. The PCR steps were as follows: 95° C. for 20 sec then 40 cycles of 95° C. for 1 sec, 55° C. for 20 sec. The sequence of primers were, for WT human HTT, forward, 5′-[…]-3′ (SEQ ID NO: 1); reverse, 5′-[…]-3′ (SEQ ID NO: 2) and sequence of probe was 56-FAM/TTG TGA AAT/ZEN/TCG TGG TGG CAA CCC/3IABKFQ/(SEQ ID NO: 8), for HTT novel exon, forward, 5′-[…]-3′ (SEQ ID NO: 3); reverse, 5′-[…]-3′ (SEQ ID NO: 4) and sequence of probe/56-FAM/AAT TCG TGG/ZEN/TGG CAA CCC TTG AGA/3IABKFQ/(SEQ ID NO: 7). Relative quantification of gene expression was performed using 2-AACT method. Fold changes in the mRNA expression level was calculated following normalization to […] glucuronidase beta (Gusb) as an endogenous reference (FIGS. 2a and 2b).

[2] = tested on: mutant HTT protein; test: Repeat oral dosing in BacHD mice: mutant HTT protein in tissues (Western blot); format: in vivo
Experimental: For the repeat dosing study, twenty-four BacHD mice (FVB/N-Tg(HTT*97Q)IXwy/J transgenic mice—Jackson Laboratories) were used for the experiment. Animal protocols were approved by the Children's Hospital of Philadelphia Institutional Animal Care and use Committee. Mice were housed in a temperature-controlled environment on a 12-h light/dark cycle. Food and water were provided ad libitum.
For the repeat dosing study, branaplam or vehicle was administered by oral gavage 3 times a week for 3 consecutive weeks. Mice were divided in 4 groups (n=6 mice/group) and treated with branaplam (12 mg/kg—1 group, or 24 mg/kg—2 groups), or vehicle (1 groups) as control. Mice were firmly restrained by grasping the loose skin to immobilize the head, maintained in a vertical position and a 22- to 26-gauge gavage needle was placed in the side of the mouth. The needle was guided following the roof of the mouth into the esophagus and allowed to gently enter in the stomach. The amount of branaplam or vehicle administrated to each mouse was based on the weight recorded the day of dosing.
At 24 h (vehicle and branaplam 12 mg/Kg & 24 mg/Kg), and 72 h (branaplam 24 mg/Kg) after the last treatment, blood, CSF, and tissue samples were obtained for PK and PD analysis. To collect CSF, mice were placed in a rodent anesthesia induction chamber where they are exposed to 4-5% isoflurane in 100% oxygen carrier gas. Once an appropriate plane of anesthesia was achieved, they were moved to a nose cone so that maintenance levels of isoflurane (1-3%) could be delivered throughout the procedure. The dorsal aspect of their cervical and occipital region was surgically prepped to visualize the dura mater under a microscope. A glass micropipette attached to a micromanipulator was introduced to the cisterna magna via a puncture through the dura mater at a point where no vasculature was visualized, and CSF was allowed to flow into the micropipette via capillary action. After approximately 15-30 minutes, the micropipette was removed from the cisterna magna, the CSF sample was transferred into Eppendorf tubes, flash frozen in liquid nitrogen, and stored at −80° C.
Following CSF collection, mice were kept under anesthesia with isoflurane. Blood was obtained via submandibular vein bleeds and collected for RNA extraction (PD analysis) using RNAprotect Animal Blood Tubes, and plasma (PK analysis) using K2EDTA coated tubes. […]
Snap-frozen mouse tissue samples were homogenized in RIPA buffer with protease and phosphatase inhibitor (Thermo Scientific) by Precellys at 6000 rpm for 40 sec. […] Total protein concentration was quantified using the BCA protein Assay (Thermo Scientific). […] Protein bands were quantified by Image J.

[3] = tested on: mHTT; test: Mutant and total HTT multiplex HTRF assay in Q48 HTT human embryonic stem cell line: mHTT; format: cell-based; conditions: Q48 HTT hESC, 48 hours
Outline: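 Q48 HTT hESCs from HD donors were treated with compound for 48 h at 37 °C after 24 h adherence, then lysed. Lysates were read by multiplex HTRF with N-terminal donor, polyQ (MW1) and post-polyQ (MAB2166) antibodies for 4-6 h at RT. Donor/acceptor ratios give relative mHTT and tHTT; pIC50 reported.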

[4] = 12 or 24 mg/kg oral, thrice weekly for three weeks, 24 h post-dosing, listed as branaplam

## CC1(C)CC(Oc2ccc(-c3ccc(-c4cn[nH]c4)cc3O)nn2)CC(C)(C)N1 [Compound 18, 5-(1H-pyrazol-4-yl)-2-(6-((2,2,6,6-tetramethylpiperidin-4-yl)oxy)pyridazin-3-yl)phenol]
[1]; 5 nM-125 nM
  increase in novel-exon-containing HTT transcript: 100-500 fold
  lowering of total Huntingtin transcript: 30-90 % of normal endogenous levels
[1]; Homo sapiens, read-out: EC50 for lowering of HTT transcript
  pEC50: 7.60 to 7.70
[2]; 24 mg/kg cohort, takedown 72 h post-dose
  mutant HTT protein, 72 h relative to 24 h: trend towards further lowering
[2]; [4]
  mutant HTT protein in the cortex: dose dependent, significant lowering; also recorded: lowers
  mutant HTT protein in the striatum: dose dependent, significant lowering; also recorded: lowers
[2]; 12 or 24 mg/kg oral, thrice weekly for three weeks, listed as branaplam
  mHTT protein in the liver: robust lowering; also recorded: lowers
[3]
  Rating (based on mHTT potency): **** (a pIC50 value between 7.0 and 7.5 is indicated by four stars (****))
  mHTT pIC50: 7.2795
